Measurements reported in patent US20260207615A1, “FLUOROPYRIDOPYRIMIDINE AND FLUOROQUINAZOLINE DERIVATIES AND METHODS OF USE THEREOF” (Frontier Medicines Corporation, priority 2022, published 2026).

target: T1, KRAS G12C and cRAF interaction (Homo sapiens, UniProt P01116, C118S/C51S/C80L/G12C); test: Inhibition of KRAS G12C and cRAF binding (AlphaScreen); format: biochemical; conditions: KRAS G12C (Cys-light, aa 1-169) preloaded with GMPPNP, cRaf RBD (aa 50-131), 2 hours incubation
T1 construct: truncated version comprising amino acids 1-169
T1 sequence (P01116 1-169 isoform P01116-2 G12C/C51S/C80L/C118S): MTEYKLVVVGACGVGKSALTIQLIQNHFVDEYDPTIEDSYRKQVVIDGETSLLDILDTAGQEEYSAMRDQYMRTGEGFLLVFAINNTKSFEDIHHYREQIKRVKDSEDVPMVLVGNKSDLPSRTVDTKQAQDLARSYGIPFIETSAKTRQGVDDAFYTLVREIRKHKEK
Experimental: The AlphaScreen technology was used to determine IC50s for compound inhibition of KRAS G12C (present as the Cys-light (C51S, C80L and C118S), truncated version comprising amino acids 1-169) and cRAF interaction. Compounds were diluted in 100% DMSO and each compound concentration was spotted at 200 nl/well onto low volume, white 384 well plates. The KRAS G12C contained a biotin-AviTag and the cRaf, as Ras-binding domain (amino acids 50-131, RBD), was GST-tagged. KRAS G12C was preloaded with the GTP analogue Guanosine 5′-[β,γ-imido]triphosphate (GMPPNP). The KRAS G12C was diluted in 25 mM Hepes, pH 7.4, 150 mM NaCl, 5 mM MgCl2, 0.01% TritonX-100 and 10 μM GMPPNP and added at 10 μl/well to compound-spotted plates resulting in a DMSO concentration of 2%. Plates were incubated for 2 hours. A mixture of RBD and the AlphaScreen streptavidin donor and glutathione acceptor beads diluted in 25 mM Hepes, pH 7.4, 150 mM NaCl, 5 mM MgCl2, 0.01% TritonX-100 and 2% DMSO was then added at 10 μl/well and incubated for 60-90 minutes before the samples were read for emission at 570 nm after excitation of the donor beads at 680 nm. All incubations were performed at room temperature. The final top compound concentration was 50 μM with 1:3 titrations for 10-point dose response curves. Final assay conditions were 0.5 nM KRAS G12C, 0.75 nM RBD and 5 μg/ml each of AlphaScreen donor and acceptor beads. IC50S were determined using nonlinear regression fit of [inhibitor] vs. response (4 parameters).
A counter assay was also set up to rule out inhibitors of the AlphaScreen technology itself. Compound plates were incubated for 2 hours as above with buffer only.
The AlphaScreen beads were added as above except biotin-AviTag-GST was substituted for the RBD. Samples were read and analyzed as above.

| IC50 | Compound |
| --- | --- |
| < 10 nM | O=C(/C=C/CN1CC2CCC(C1)O2)N1CCN(c2nc(OC[C@@]34CCCN3C[C@H](F)C4)nc3c(F)c(-c4cccc5ccc(F)c(F)c45)ncc23)CC12COC2 [Example 22, (E)-4-(8-oxa-3-azabicyclo[3.2.1]octan-3-yl)-1-(8-(7-(7,8-difluoronaphthalen-1-yl)-8-fluoro-2-(((2R,7aS)-2-fluorotetrahydro-1H-pyrrolizin-7a(5H)-yl)methoxy)pyrido[4,3-d]pyrimidin-4-yl)-2-oxa-5,8-diazaspiro[3.5]nonan-5-yl) but-2-en-1-one] |
| 10 to 100 nM | O=C(/C=C/CN1C[C@H]2C[C@@H]1CO2)N1CCN(c2nc(OC[C@@]34CCCN3C[C@H](F)C4)nc3c(F)c(-c4cccc5cccc(Cl)c45)ncc23)CC12COC2 [Example 13, (E)-4-((1R,4R)-2-oxa-5-azabicyclo[2.2.1]heptan-5-yl)-1-(8-(7-(8-chloronaphthalen-1-yl)-8-fluoro-2-(((2R,7aS)-2-fluorotetrahydro-1H-pyrrolizin-7a(5H)-yl)methoxy)pyrido[4,3-d]pyrimidin-4-yl)-2-oxa-5,8-diazaspiro[3.5]nonan-5-yl) but-2-en-1-one] |
| 10 to 100 nM | CN(C)C/C=C/C(=O)N1CCN(c2nc(OC[C@@]34CCCN3C[C@H](F)C4)nc3c(F)c(-c4cccc5cccc(Cl)c45)ncc23)CC12COC2 [Example 25, (E)-1-(8-(7-(8-chloronaphthalen-1-yl)-8-fluoro-2-(((2R,7aS)-2-fluorotetrahydro-1H-pyrrolizin-7a(5H)-yl)methoxy)pyrido[4,3-d]pyrimidin-4-yl)-2-oxa-5,8-diazaspiro[3.5]nonan-5-yl)-4-(dimethylamino)but-2-en-1-one] |
| 10 to 100 nM | CN1CC[C@@H]1/C=C/C(=O)N1CCN(c2nc(OC[C@@]34CCCN3C[C@H](F)C4)nc3c(F)c(-c4cccc5ccc(F)c(F)c45)ncc23)CC12COC2 [Example 67] |
| < 10 nM | C#Cc1c(F)ccc2cccc(-c3ncc4c(N5CCN(C(=O)/C=C/CN6C[C@@H]7C[C@H]6CO7)C6(COC6)C5)nc(OC[C@@]56CCCN5C[C@H](F)C6)nc4c3F)c12 [Example 42, (E)-4-((1S,4S)-2-oxa-5-azabicyclo[2.2.1]heptan-5-yl)-1-(8-(7-(8-ethynyl-7-fluoronaphthalen-1-yl)-8-fluoro-2-(((2R,7aS)-2-fluorotetrahydro-1H-pyrrolizin-7a(5H)-yl)methoxy)pyrido[4,3-d]pyrimidin-4-yl)-2-oxa-5,8-diazaspiro[3.5]nonan-5-yl) but-2-en-1-one] |
| 10 to 100 nM | C=CC(=O)N1CCN(c2nc(OC[C@@]34CCCN3C[C@H](F)C4)nc3c(F)c(-c4cccc5ccc(F)c(Cl)c45)ncc23)CC12COC2 [Example 33, 1-(8-(7-(8-chloro-7-fluoronaphthalen-1-yl)-8-fluoro-2-(((2R,7aS)-2-fluorotetrahydro-1H-pyrrolizin-7a(5H)-yl)methoxy)pyrido[4,3-d]pyrimidin-4-yl)-2-oxa-5,8-diazaspiro[3.5]nonan-5-yl) prop-2-en-1-one] |
| 10 to 100 nM | C#Cc1c(F)ccc2cccc(-c3ncc4c(N5CCN(C(=O)/C=C/[C@H]6CCN6C)C6(COC6)C5)nc(OC[C@@]56CCCN5C[C@H](F)C6)nc4c3F)c12 [Example 66] |
| < 10 nM | C#Cc1c(F)ccc2cccc(-c3ncc4c(N5CCN(C(=O)/C=C/CN6CC[C@@H](F)C6)C6(COC6)C5)nc(OC[C@@]56CCCN5C[C@H](F)C6)nc4c3F)c12 [Example 44, (E)-1-(8-(7-(8-ethynyl-7-fluoronaphthalen-1-yl)-8-fluoro-2-(((2R,7aS)-2-fluorotetrahydro-1H-pyrrolizin-7a(5H)-yl)methoxy)pyrido[4,3-d]pyrimidin-4-yl)-2-oxa-5,8-diazaspiro[3.5]nonan-5-yl)-4-((R)-3-fluoropyrrolidin-1-yl) but-2-en-1-one] |

More lines, now with the values behind:

| Compound | IC50 |
| --- | --- |
| O=C(C#CCN1CC2CCC(C1)O2)N1CCN(c2nc(OC[C@@]34CCCN3C[C@H](F)C4)nc3c(F)c(-c4cccc5cccc(Cl)c45)ncc23)CC12COC2 [Example 47, 4-(8-oxa-3-azabicyclo[3.2.1]octan-3-yl)-1-(8-(7-(8-chloronaphthalen-1-yl)-8-fluoro-2-(((2R,7aS)-2-fluorotetrahydro-1H-pyrrolizin-7a(5H)-yl)methoxy)pyrido[4,3-d]pyrimidin-4-yl)-2-oxa-5,8-diazaspiro[3.5]nonan-5-yl) but-2-yn-1-one] | 100 to 500 nM |
| O=C(/C=C/CN1CC2CC(C1)O2)N1CCN(c2nc(OC[C@@]34CCCN3C[C@H](F)C4)nc3c(F)c(-c4cccc(Cl)c4C(F)(F)F)ncc23)CC12COC2 [Example 77] | 10 to 100 nM |
| O=C(/C=C/CN1[C@@H]2CC[C@H]1COC2)N1CCN(c2nc(OC[C@@]34CCCN3C[C@H](F)C4)nc3c(F)c(-c4ccccc4C(F)F)ncc23)CC12COC2 [Example 26, (E)-4-((1R,5S)-3-oxa-8-azabicyclo[3.2.1]octan-8-yl)-1-(8-(7-(2-(difluoromethyl)phenyl)-8-fluoro-2-(((2R,7aS)-2-fluorotetrahydro-1H-pyrrolizin-7a(5H)-yl)methoxy)pyrido[4,3-d]pyrimidin-4-yl)-2-oxa-5,8-diazaspiro[3.5]nonan-5-yl) but-2-en-1-one] | 100 to 500 nM |
| C=CC(=O)N1CCN(c2nc(OC[C@@]34CCCN3C[C@H](F)C4)nc3c(F)c(-c4cccc5cccc(Cl)c45)ncc23)C[C@@]12CCOC2 [Example 88] | 100 to 500 nM |
| C=CC(=O)N1CCN(c2nc(OC[C@@]34CCCN3C[C@H](F)C4)nc3c(F)c(-c4cccc5ccc(F)c(F)c45)ncc23)C[C@@]12CCOC2 [Example 80] | 10 to 100 nM |
| C=C(F)C(=O)N1CCN(c2nc(OC[C@@]34CCCN3C[C@H](F)C4)nc3c(F)c(-c4cc(O)cc(Cl)c4C4CC4)ncc23)CC12COC2 [Example 79] | ≥ 500 nM |
| Cc1nccc(/C=C/C(=O)N2CCN(c3nc(OCC45CCCN4CCC5)nc4c(F)c(-c5cccc6ccc(F)c(Cl)c56)ncc34)CC23COC3)n1 [Example 11, (E)-1-(8-(7-(8-chloro-7-fluoronaphthalen-1-yl)-8-fluoro-2-((tetrahydro-1H-pyrrolizin-7a(5H)-yl)methoxy)pyrido[4,3-d]pyrimidin-4-yl)-2-oxa-5,8-diazaspiro[3.5]nonan-5-yl)-3-(2-methylpyrimidin-4-yl) prop-2-en-1-one] | 100 to 500 nM |
| C=CC(=O)N1CCN(c2nc(OC[C@@]34CCCN3C[C@H](F)C4)nc3c(F)c(-c4cccc5cccc(Cl)c45)ncc23)CC12COC2 [Example 17, 1-(8-(7-(8-chloronaphthalen-1-yl)-8-fluoro-2-(((2R,7aS)-2-fluorotetrahydro-1H-pyrrolizin-7a(5H)-yl)methoxy)pyrido[4,3-d]pyrimidin-4-yl)-2-oxa-5,8-diazaspiro[3.5]nonan-5-yl) prop-2-en-1-one] | 10 to 100 nM |
| C=CC(=O)N1[C@H](C)CN(c2nc(OC[C@@]34CCCN3C[C@H](F)C4)nc3c(F)c(-c4cccc5ccc(F)c(F)c45)ncc23)CC12COC2 [Example 64, 1-((R)-8-(7-(7,8-difluoronaphthalen-1-yl)-8-fluoro-2-(((2R,7aS)-2-fluorotetrahydro-1H-pyrrolizin-7a(5H)-yl)methoxy)pyrido[4,3-d]pyrimidin-4-yl)-6-methyl-2-oxa-5,8-diazaspiro[3.5]nonan-5-yl) prop-2-en-1-one] | < 10 nM |
| C=CC(=O)N1CCN(c2nc(OC[C@@]34CCCN3C[C@H](F)C4)nc3c(F)c(-c4ccc(F)c5sc(N)nc45)c(C(F)(F)F)cc23)C[C@]12CCOC2 [Example 92] | 10 to 100 nM |
| C=CC(=O)N1CCN(c2nc(OC[C@@]34CCCN3C[C@H](F)C4)nc3c(F)c(-c4ccc(F)c5sc(N)nc45)c(Cl)cc23)CC12CCOC2 (some centres unmarked) [Example 86] | 100 to 500 nM |
| C=CC(=O)N1CCN(c2nc(OC[C@@]34CCCN3C[C@H](F)C4)nc3c(F)c(-c4ccc(F)c5sc(N)nc45)c(Cl)cc23)C[C@@]12CCOC2 [Example 91] | 100 to 500 nM |
| C=CC(=O)N1[C@@H](C)CN(c2nc(OC[C@@]34CCCN3C[C@H](F)C4)nc3c(F)c(-c4cccc5ccc(F)c(F)c45)ncc23)CC12COC2 [Example 70] | ≥ 500 nM |
| C=CC(=O)N1CCN(c2nc(OC[C@@]34CCCN3C[C@H](F)C4)nc3c(F)c(-c4cc(O)cc(Cl)c4C(F)(F)F)ncc23)CC12COC2 [Example 54, 1-(8-(7-(3-chloro-5-hydroxy-2-(trifluoromethyl)phenyl)-8-fluoro-2-(((2R,7aS)-2-fluorotetrahydro-1H-pyrrolizin-7a(5H)-yl)methoxy)pyrido[4,3-d]pyrimidin-4-yl)-2-oxa-5,8-diazaspiro[3.5]nonan-5-yl) prop-2-en-1-one] | < 10 nM |
| Cc1cc(/C=C/C(=O)N2CCN(c3nc(OC[C@@]45CCCN4C[C@H](F)C5)nc4c(F)c(-c5cccc6ccc(F)c(F)c56)ncc34)CC23COC3)nc(C)n1 [Example 32, (E)-1-(8-(7-(7,8-difluoronaphthalen-1-yl)-8-fluoro-2-(((2R,7aS)-2-fluorotetrahydro-1H-pyrrolizin-7a(5H)-yl)methoxy)pyrido[4,3-d]pyrimidin-4-yl)-2-oxa-5,8-diazaspiro[3.5]nonan-5-yl)-3-(2,6-dimethylpyrimidin-4-yl) prop-2-en-1-one] | 10 to 100 nM |
